Assay results published in patent US20030211605A1, “Derivation of midbrain dopaminergic neurons from embryonic stem cells” (priority 2003, published 2003).

Assays:
Format in all cases: cell-based, mouse
ES-derived neuron = test: Patch clamp recording of synaptic activity of differentiated ES-derived neurons; conditions: 10 mM, pressure application; 13 days of differentiation; FIG. 9B/9C
ES cells [1] = test: Comparison of N2 and N3FL media: total, TUJ1+ and TH+ cells after differentiation; conditions: for phenotype of the ES cell derived population: variation of concentration in the medium
ES cells [2] = test: Yield of TH+ neurons (TH/TUJ1 immunocytochemistry) in differentiated ES cell cultures; conditions: SHH 500 ng/ml, FGF8 100 ng/ml, cAMP 1 mM, ascorbic acid 200 μM, added at different stages; FIG. 4
Method: Specifically, the cells were dissociated by adding a solution of 0.05% typsin and 0.04% EDTA to the plates and incubating at 37° C. for 5 minutes. The dissociated cells were plated on tissue culture plastic or glass coverslips at a concentration of 1.5-2×10^6 cm^2 in serum free N2 medium supplemented with 1 μg/ml of laminin and 10 ng/ml of basic fibroblast growth factor (bFGF, R&D Systems, Minneapolis, Minn.). The medium was also supplemented with murine aminoterminal fragment SHH (500 ng/ml); murine FGF8 isoform b (100 ng/ml, both from R& D System); and ascorbic acid (200 μM, Sigma). Control cultures were treated identically except that no SHH or FGF8 was applied during cell proliferation.
Differentiation (stage 5) was induced using a modification of Okabe et al., using N2 medium instead of N3FL medium. […]
Uniform random sampling procedure were used for cell counts and quantified using the fractionator technique (Gundersen et al., (1988) “Some new, simple and efficient stereological methods and their use in pathological research and diagnosis,” APIMS 96:379-394). […] Data expressed as mean±SEM.
Yield of TH+ neurons is expressed as a percentage of all TUJ1+ neurons.

Compound | response to application to the dendrites of a differentiated neuron (ES-derived neuron) | phenotype of the ES cell derived population (ES cells [1]) | further results
N[C@@H](CCC(=O)O)C(=O)O [glutamate] | inward current | – | –
NCCCC(=O)O [GABA, gamma amino butyric acid] | inward current | – | –
O=S(=O)(O)CCN1CCN(CCO)CC1 [HEPES, 4-(2-hydroxyethyl)-1-piperazine-ethanesulfonic acid] | – | – | percentage of TUJ1 and TH+ cells (ES cells [1]; substitution of bicarbonate (N2) by HEPES (N3FL), FIG. 8): dramatically reduced
NC(=O)CC[C@H](N)C(=O)O [glutamine] | – | did not significantly affect | –
O=C1O[C@H]([C@@H](O)CO)C(O)=C1O [ascorbic acid] | – | – | yield of TH+ neurons (percentage of all TUJ1+ neurons) (ES cells [2]): increase the yield of TH+ neurons
transferrin | – | did not significantly affect | –
